Drawing on patent US7414072B2, “Aryl 5-thio-β-d-glucopyranoside derivatives and therapeutic agents for diabetes containing the same” (Taisho Pharmaceutical Co., Ltd., priority 2002, dated 2008), this text covers melting point for 42 compounds.

Several values for one entry are separate records, joined by “and”; a condition that tells them apart may be missing. Identical values can stand only once.

`CCc1ccc(Cc2ccccc2O[C@@H]2S[C@H](CO)[C@@H](O)[C@H](O)[C@H]2O)cc1` [Compound 1, 2′-(4′-ethylbenzyl)phenyl 5-thio-β-D-glucopyranoside]: the melting point is 154 to 160 °C and 154 to 169 °C and 156.5 to 157.5 °C.

As to `CCc1ccc(Cc2cc(Cl)ccc2O[C@@H]2S[C@H](CO)[C@@H](O)[C@H](O)[C@H]2O)cc1` [Compound 2, 4′-chloro-2′-(4′-ethylbenzyl)phenyl 5-thio-β-D-glucopyranoside], the melting point was in the range of 173.5 to 177.5 °C.

With `Cc1ccc(Cc2ccccc2O[C@@H]2S[C@H](CO)[C@@H](O)[C@H](O)[C@H]2O)cc1` [Compound 3, 2′-(4′-methylbenzyl)phenyl 5-thio-β-D-glucopyranoside], the melting point lay within 184 to 186 °C.

In the case of `COc1ccc(Cc2ccccc2O[C@@H]2S[C@H](CO)[C@@H](O)[C@H](O)[C@H]2O)cc1` [Compound 4, 2′-(4′-methoxybenzyl)phenyl 5-thio-β-D-glucopyranoside], the melting point was 166 to 167.5 °C.

`CCOc1ccc(Cc2ccccc2O[C@@H]2S[C@H](CO)[C@@H](O)[C@H](O)[C@H]2O)cc1` [Compound 5, 2′-(4′-ethoxybenzyl)phenyl 5-thio-β-D-glucopyranoside] returned a melting point of 182 to 183.5 °C.

`CCc1ccc(Cc2cc(C)ccc2O[C@@H]2S[C@H](CO)[C@@H](O)[C@H](O)[C@H]2O)cc1` [Compound 7, 2′-(4′-ethylbenzyl)-4′-methylphenyl 5-thio-β-D-glucopyranoside] had a melting point of 154 to 156 °C.

As to `CCc1ccc(Cc2cc(F)ccc2O[C@@H]2S[C@H](CO)[C@@H](O)[C@H](O)[C@H]2O)cc1` [Compound 8, 2′-(4′-ethylbenzyl)-4′-fluorophenyl 5-thio-β-D-glucopyranoside], the melting point lay in the range of 163 to 165.5 °C.

Compound `OC[C@H]1S[C@@H](Oc2ccccc2Cc2ccc(F)cc2)[C@H](O)[C@@H](O)[C@@H]1O` [Compound 9, 2′-(4′-fluorobenzyl)phenyl 5-thio-β-D-glucopyranoside] returned a melting point of 157 to 158.5 °C.

The compound `CCc1ccc(Cc2cc(Br)ccc2O[C@@H]2S[C@H](CO)[C@@H](O)[C@H](O)[C@H]2O)cc1` [Compound 10, 4′-bromo-2′-(4′-ethylbenzyl)phenyl 5-thio-β-D-glucopyranoside] returned a melting point of 172 to 173.5 °C.

`OC[C@H]1S[C@@H](Oc2ccccc2Cc2ccccc2)[C@H](O)[C@@H](O)[C@@H]1O` [Compound 11, 2′-benzylphenyl 5-thio-β-D-glucopyranoside] yielded a melting point of 171 to 174 °C.

Take `CCc1ccc(Cc2cc(CO)ccc2O[C@@H]2S[C@H](CO)[C@@H](O)[C@H](O)[C@H]2O)cc1` [Compound 13, 2′-(4′-ethylbenzyl)-4′-(hydroxymethyl)phenyl 5-thio-β-D-glucopyranoside]: the melting point was in the range of 202.5 to 205 °C.

In turn, `CCc1ccc(Cc2c(O)cccc2O[C@@H]2S[C@H](CO)[C@@H](O)[C@H](O)[C@H]2O)cc1` [Compound 14, 2′-(4′-ethylbenzyl)-3′-hydroxyphenyl 5-thio-β-D-glucopyranoside] came in with a melting point of 238 to 242.5 °C.

Consider `CCc1ccc(Cc2cc(C(=O)OC)ccc2O[C@@H]2S[C@H](CO)[C@@H](O)[C@H](O)[C@H]2O)cc1` [Compound 15, 2′-(4′-ethylbenzyl)-4′-methoxycarbonylphenyl 5-thio-β-D-glucopyranoside], for which the melting point lay in the range of 196 to 198 °C.

In turn, `CCc1ccc(Cc2cc(C(=O)O)ccc2O[C@@H]2S[C@H](CO)[C@@H](O)[C@H](O)[C@H]2O)cc1` [Compound 16, 4′-carboxy-2′-(4′-ethylbenzyl)phenyl 5-thio-β-D-glucopyranoside] returned a melting point of 219 to 220.5 °C.

As to `CCc1ccc(Cc2ccc(OCOC)cc2O[C@@H]2S[C@H](CO)[C@@H](O)[C@H](O)[C@H]2O)cc1` [Compound 20, 2′-(4′-ethylbenzyl)-5′-(methoxymethyloxy)phenyl 5-thio-β-D-glucopyranoside], the melting point lay in the range of 175.5 to 180 °C.

In turn, `CCc1ccc(Cc2ccc(O)cc2O[C@@H]2S[C@H](CO)[C@@H](O)[C@H](O)[C@H]2O)cc1` [Compound 21, 2′-(4′-ethylbenzyl)-5′-hydroxyphenyl 5-thio-β-D-glucopyranoside] returned a melting point of 172 to 173.5 °C.

In turn, `CCc1ccc(Cc2ccccc2O[C@@H]2S[C@H](COC(=O)OC)[C@@H](O)[C@H](O)[C@H]2O)cc1` [Compound 23, 2′-(4′-ethylbenzyl)phenyl 6-O-methoxycarbonyl 5-thio-β-D-glucopyranoside] registered a melting point of 102 to 104.5 °C.

`OC[C@H]1S[C@@H](Oc2ccccc2Cc2ccncc2)[C@H](O)[C@@H](O)[C@@H]1O` [Compound 24] showed a melting point of 179 to 180 °C.

With `OC[C@H]1S[C@@H](Oc2ccccc2OCc2ccccc2)[C@H](O)[C@@H](O)[C@@H]1O` [Compound 25], the melting point is 148 to 150 °C.

In turn, `O=C(Nc1ccccc1)c1cc(Cl)ccc1O[C@@H]1S[C@H](CO)[C@@H](O)[C@H](O)[C@H]1O` [Compound 27] yielded a melting point of 96 to 105 °C.

In the case of `CCc1ccc(Cc2cc(Cl)cc(Cl)c2O[C@@H]2S[C@H](CO)[C@@H](O)[C@H](O)[C@H]2O)cc1` [Compound 31, 4′,6′-dichloro-2′-(4′-ethylbenzyl)phenyl 5-thio-β-D-glucopyranoside], the melting point was in the range of 72 to 80 °C.

Turning to `Cc1ccc(Nc2ccccc2O[C@@H]2S[C@H](CO)[C@@H](O)[C@H](O)[C@H]2O)cc1` [Compound 34, 2′-(p-Toluidino)phenyl 5-thio-β-D-glucopyranoside], the melting point is 152 to 153 °C.

`OC[C@H]1S[C@@H](Nc2ccccc2Cc2ccccc2)[C@H](O)[C@@H](O)[C@@H]1O` [Compound 35] came in with a melting point of 144 to 151 °C.

With `Cc1ccc(Cc2ccccc2O[C@@H]2S[C@H](CO)[C@@H](O)[C@H](O)[C@H]2O)nc1` [Compound 36], the melting point lay in the range of 177 to 180 °C.

The compound `Cc1csc(Cc2ccccc2O[C@@H]2S[C@H](CO)[C@@H](O)[C@H](O)[C@H]2O)n1` [Compound 37] gave a melting point of 197 to 200 °C.

As for `Cc1ccc(Sc2ccccc2O[C@@H]2S[C@H](CO)[C@@H](O)[C@H](O)[C@H]2O)cc1` [Compound 38], the melting point lay in the range of 140 to 142 °C.

Consider `CCc1ccc(Cc2ccc(CO)cc2O[C@@H]2S[C@H](CO)[C@@H](O)[C@H](O)[C@H]2O)cc1` [Compound 39, 2′-(4′-ethylbenzyl)-5′-(hydroxymethyl)phenyl 5-thio-β-D-glucopyranoside], for which the melting point is 206 to 211 °C.

The compound `COC(=O)c1ccc(Cc2cc(Cl)ccc2O[C@@H]2S[C@H](CO)[C@@H](O)[C@H](O)[C@H]2O)cc1` [Compound 40, 4′-chloro-2′-(4′-methoxycarbonylbenzyl)phenyl 5-thio-β-D-glucopyranoside] gave a melting point of 74 to 76 °C.

`O=[N+]([O-])c1ccc(Cc2cc(Cl)ccc2O[C@@H]2S[C@H](CO)[C@@H](O)[C@H](O)[C@H]2O)cc1` [Compound 41, 4′-chloro-2′-(4′-nitrobenzyl)phenyl 5-thio-β-D-glucopyranoside] came in with a melting point of 180 to 182 °C.

As for `Nc1ccc(Cc2cc(Cl)ccc2O[C@@H]2S[C@H](CO)[C@@H](O)[C@H](O)[C@H]2O)cc1` [Compound 42, 2′-(4′-aminobenzyl)-4′-chlorophenyl 5-thio-β-D-glucopyranoside], the melting point was 206 to 208 °C.

`OC[C@H]1S[C@@H](Oc2ccccc2Cc2ccc(-n3cccn3)cc2)[C@H](O)[C@@H](O)[C@@H]1O` [Compound 43, 2′-(4′-pyrazol-1′-ylbenzyl)phenyl 5-thio-β-D-glucopyranoside]: the melting point is 208 to 210 °C.

As for `OC[C@H]1S[C@@H](Oc2ccc(Cl)cc2Cc2ccccc2F)[C@H](O)[C@@H](O)[C@@H]1O` [Compound 44, 4′-chloro-2′-(2′-fluorobenzyl)phenyl 5-thio-β-D-glucopyranoside], the melting point lay in the range of 170 to 173 °C.

`CCCCOc1ccc(Cc2cc(Cl)ccc2O[C@@H]2S[C@H](CO)[C@@H](O)[C@H](O)[C@H]2O)cc1` [Compound 45, 2′-(4′-butoxybenzyl)-4′-chlorophenyl 5-thio-β-D-glucopyranoside] had a melting point of 166 to 169 °C.

The compound `CCCCc1ccc(Cc2cc(Cl)ccc2O[C@@H]2S[C@H](CO)[C@@H](O)[C@H](O)[C@H]2O)cc1` [Compound 46, 2′-(4′-butylbenzyl)-4′-chlorophenyl 5-thio-β-D-glucopyranoside] registered a melting point of 165 to 168 °C.

Compound `CC(=O)Nc1ccc(Cc2cc(Cl)ccc2O[C@@H]2S[C@H](CO)[C@@H](O)[C@H](O)[C@H]2O)cc1` [Compound 47, 2′-(4′-acetylaminobenzyl)-4′-chlorophenyl 5-thio-β-D-glucopyranoside] registered a melting point of 235 to 236.5 °C.

The compound `CCSc1ccc(Cc2ccccc2O[C@@H]2S[C@H](CO)[C@@H](O)[C@H](O)[C@H]2O)cc1` [Compound 48, 2′-(4′-ethylthiobenzyl)phenyl 5-thio-β-D-glucopyranoside] returned a melting point of 174 to 176.5 °C.

Compound `CCc1ccc(Cc2cccc(O[C@@H]3S[C@H](CO)[C@@H](O)[C@H](O)[C@H]3O)c2)cc1` [Compound 49] had a melting point of 132 to 134 °C.

Turning to `CCc1ccc(Cc2ccc(O[C@@H]3S[C@H](CO)[C@@H](O)[C@H](O)[C@H]3O)cc2)cc1` [Compound 50], the melting point was in the range of 137 to 138.5 °C.

Regarding `CS(=O)(=O)Nc1ccc(Cc2cc(Cl)ccc2O[C@@H]2S[C@H](CO)[C@@H](O)[C@H](O)[C@H]2O)cc1` [Compound 51, 4′-chloro-2′-(4′-methylsulfonylaminobenzyl)phenyl 5-thio-β-D-glucopyranoside], the melting point lay within 151 to 153 °C.

In turn, `CN(C)c1ccc(Cc2cc(Cl)ccc2O[C@@H]2S[C@H](CO)[C@@H](O)[C@H](O)[C@H]2O)cc1` [Compound 52, 4′-chloro-2′-(4′-N,N-dimethylaminobenzyl)phenyl 5-thio-β-D-glucopyranoside] showed a melting point of 183 to 184 °C.

For the compound `OC[C@H]1S[C@@H](Oc2c(Cc3c(F)cccc3Cl)cc(Cl)cc2Cc2c(F)cccc2Cl)[C@H](O)[C@@H](O)[C@@H]1O` [Compound 53], the melting point is 112 to 118 °C.

In turn, `CCn1cc(Cc2ccccc2O[C@@H]2S[C@H](CO)[C@@H](O)[C@H](O)[C@H]2O)cn1` [Compound 54] returned a melting point of 175 to 177.5 °C.

In general, melting point refers to the temperature of the solid-liquid transition.
